Results taken from ChEMBL document CHEMBL1126732, “Synthesis of and radioligand binding studies with a tritiated pinacidil analogue: receptor interactions of structurally different classes of potassium channel openers and blockers” (J Med Chem, 1993).
Structures can show the parent of a compound that is named as a salt.

Species: Rattus norvegicus
Assay: Vasorelaxant activity expressed as negative logarithm of the concentration causing a 50% inhibition of spontaneous myogenic activity in rat portal vein.
Type: functional

| Structure (SMILES) | pD2 |
| --- | --- |
| CC1(C)C=C(n2ccccc2=O)c2cc(C#N)ccc2O1 [BIMAKALIM] | 8.2 |
| CC1=Nc2ccc(Cl)cc2S(=O)(=O)N1 [DIAZOXIDE] | 5.5 |
| CC(N/C(=N\C#N)Nc1ccncc1)C(C)(C)C (stereo in doubt; 12) [PINACIDIL ANHYDROUS] | 6.11 |
| CC(N/C(=N\C#N)Nc1ccncc1)C(C)(C)C (stereo in doubt; 11) [PINACIDIL ANHYDROUS] | 7.47 |
| CCC(C)(C)/N=C(\NC#N)Nc1cccnc1 | 8.75 |
| CC1(C)Oc2ccc(C#N)cc2C(N2CCCC2=O)C1O (configuration not stated) [CROMAKALIM] | 5.66 |
| CC1(C)Oc2ccc(C#N)cc2[C@@H](N2CCCC2=O)[C@@H]1O [LEVCROMAKALIM] | 7.89 |
| C[C@H](N/C(=C\[N+](=O)[O-])Nc1cccnc1)C(C)(C)C | 7.96 |
| CC1(C)Oc2ccc(C#N)cc2[C@H](OC2=CC(=O)CC2)[C@H]1O | 5.26 |
| Nc1cc(N2CCCCC2)nc(N)[n+]1OS(=O)(=O)[O-] [MINOXIDIL SULFATE] | 7.14 |
| C[C@@H](N/C(=C\[N+](=O)[O-])Nc1cccnc1)C(C)(C)C | 6 |
| CC1(C)Oc2ccc(C#N)cc2[C@@H](OC2=CC(=O)CC2)[C@@H]1O | 7.85 |
